Values of other authors in patent publication US7241583B2, “TRL1 as an antifungal target” (Oxford Glycosciences (UK) Ltd, priority 2002, dated 2007).

Conditions: mice; DOX 2 mg/ml in 5% sucrose solution as drinking water, approx. 5 ml per day

Question: What does the source list for `C[C@H]1c2cccc(O)c2C(O)=C2C(=O)[C@]3(O)C(O)=C(C(N)=O)C(=O)[C@@H](N(C)C)[C@@H]3[C@@H](O)[C@@H]21` [DOX, doxycycline]?
Answer: concentration of DOX in kidney: > 10 mg/g of kidney; concentration of DOX in liver: > 8 mg/g of liver; concentration of DOX in serum: more than 2 mg/ml of serum
